# Laboratory results from ChEMBL document CHEMBL4507278 (2021).
# How the values were obtained:
# [1] = system: Tyrosine-protein kinase ABL1 (Homo sapiens), P00519 [H396P]; conditions: Compound concentration 1000.0 nM
# [2] = molecular target: Calcium/calmodulin-dependent protein kinase type II subunit beta (Homo sapiens) (UniProt Q13554); conditions: Compound concentration 1000.0 nM
# [3] = system: Tyrosine-protein kinase ABL1 (Homo sapiens), P00519 [F317L]; conditions: Compound concentration 1000.0 nM
# [4] = molecular target: Serine/threonine-protein kinase LATS2 (Homo sapiens) (UniProt Q9NRM7); conditions: Compound concentration 1000.0 nM
# [5] = molecular target: Serine/threonine-protein kinase PAK 1 (Homo sapiens) (UniProt Q13153); conditions: Compound concentration 1000.0 nM
# [6] = molecular target: Calcium/calmodulin-dependent protein kinase kinase 2 (Homo sapiens) (UniProt Q96RR4); conditions: Compound concentration 1000.0 nM
# [7] = molecular target: Ribosomal protein S6 kinase alpha-5 (Homo sapiens) (UniProt O75582); conditions: Compound concentration 1000.0 nM
# [8] = molecular target: Ribosomal protein S6 kinase alpha-6 (Homo sapiens) (UniProt Q9UK32); conditions: Compound concentration 1000.0 nM
# [9] = molecular target: Sodium-dependent dopamine transporter (Homo sapiens) (UniProt Q01959); conditions: Compound concentration 10.0 uM
# [10] = molecular target: Bone morphogenetic protein receptor type-1A (Homo sapiens) (UniProt P36894); conditions: Compound concentration 1000.0 nM
# [11] = molecular target: Atypical kinase COQ8B, mitochondrial (Homo sapiens) (UniProt Q96D53); conditions: Compound concentration 1000.0 nM
# [12] = molecular target: Mitogen-activated protein kinase 12 (Homo sapiens) (UniProt P53778); conditions: Compound concentration 1000.0 nM
# [13] = system: Hepatocyte growth factor receptor (Homo sapiens), P08581 [M1250T]; conditions: Compound concentration 1000.0 nM
# [14] = molecular target: Dual specificity protein kinase CLK2 (Homo sapiens) (UniProt P49760); conditions: Compound concentration 1000.0 nM
# [15] = molecular target: Serine/threonine-protein kinase 35 (Homo sapiens) (UniProt Q8TDR2); conditions: Compound concentration 1000.0 nM
# [16] = molecular target: Serine/threonine-protein kinase Sgk2 (Homo sapiens) (UniProt Q9HBY8); conditions: Compound concentration 1000.0 nM
# [17] = molecular target: Receptor-type tyrosine-protein kinase FLT3 (Homo sapiens) (UniProt P36888); conditions: Compound concentration 1000.0 nM
# [18] = molecular target: Tyrosine-protein kinase Lyn (Homo sapiens) (UniProt P07948); conditions: Compound concentration 1000.0 nM
# [19] = molecular target: Phosphatidylinositol 3-kinase catalytic subunit type 3 (Homo sapiens) (UniProt Q8NEB9); conditions: Compound concentration 1000.0 nM
# [20] = system: Epidermal growth factor receptor (Homo sapiens), P00533 [UNDEFINED MUTATION]; conditions: Compound concentration 1000.0 nM
# [21] = molecular target: Proto-oncogene tyrosine-protein kinase ROS (Homo sapiens) (UniProt P08922); conditions: Compound concentration 1000.0 nM
# [22] = system: Receptor-type tyrosine-protein kinase FLT3 (Homo sapiens), P36888 [D835Y]; conditions: Compound concentration 1000.0 nM
# [23] = molecular target: Dual specificity tyrosine-phosphorylation-regulated kinase 1B (Homo sapiens) (UniProt Q9Y463); conditions: Compound concentration 1000.0 nM
# [24] = molecular target: Sigma intracellular receptor 2 (Homo sapiens) (UniProt Q5BJF2); conditions: Compound concentration 10.0 uM
# [25] = system: Epidermal growth factor receptor (Homo sapiens), P00533 [T790M]; conditions: Compound concentration 1000.0 nM
# [26] = molecular target: Serine/threonine-protein kinase LATS1 (Homo sapiens) (UniProt O95835); conditions: Compound concentration 1000.0 nM
# [27] = molecular target: Serine/threonine-protein kinase WNK2 (Homo sapiens) (UniProt Q9Y3S1); conditions: Compound concentration 1000.0 nM
# [28] = molecular target: Serine/threonine-protein kinase TAO1 (Homo sapiens) (UniProt Q7L7X3); conditions: Compound concentration 1000.0 nM
# [29] = molecular target: Protein-tyrosine kinase 2-beta (Homo sapiens) (UniProt Q14289); conditions: Compound concentration 1000.0 nM
# [30] = molecular target: Cyclin-dependent kinase-like 2 (Homo sapiens) (UniProt Q92772); conditions: Compound concentration 1000.0 nM
# [31] = molecular target: Mitogen-activated protein kinase kinase kinase kinase 2 (Homo sapiens) (UniProt Q12851); conditions: Compound concentration 1000.0 nM
# [32] = molecular target: Ephrin type-A receptor 1 (Homo sapiens) (UniProt P21709); conditions: Compound concentration 1000.0 nM
# [33] = molecular target: Cyclin-dependent kinase 19 (Homo sapiens) (UniProt Q9BWU1); conditions: Compound concentration 1000.0 nM
# [34] = molecular target: Homeodomain-interacting protein kinase 2 (Homo sapiens) (UniProt Q9H2X6); conditions: Compound concentration 1000.0 nM
# [35] = molecular target: Calcium-dependent protein kinase 1 (Plasmodium falciparum) (UniProt P62344); conditions: Compound concentration 1000.0 nM
# [36] = molecular target: Cyclin-dependent kinase 8 (Homo sapiens) (UniProt P49336); conditions: Compound concentration 1000.0 nM
# [37] = molecular target: Non-receptor tyrosine-protein kinase TYK2 (Homo sapiens) (UniProt P29597); conditions: Compound concentration 1000.0 nM
# [38] = molecular target: cGMP-dependent protein kinase 2 (Homo sapiens) (UniProt Q13237); conditions: Compound concentration 1000.0 nM
# [39] = system: Mast/stem cell growth factor receptor Kit (Homo sapiens), P10721 [D816V]; conditions: Compound concentration 1000.0 nM
# [40] = molecular target: Activin receptor type-2A (Homo sapiens) (UniProt P27037); conditions: Compound concentration 1000.0 nM
# [41] = molecular target: Tyrosine-protein kinase Srms (Homo sapiens) (UniProt Q9H3Y6); conditions: Compound concentration 1000.0 nM
# [42] = molecular target: Serine/threonine-protein kinase Nek1 (Homo sapiens) (UniProt Q96PY6); conditions: Compound concentration 1000.0 nM
# [43] = molecular target: AP2-associated protein kinase 1 (Homo sapiens) (UniProt Q2M2I8); conditions: Compound concentration 1000.0 nM
# [44] = molecular target: Serine/threonine-protein kinase DCLK1 (Homo sapiens) (UniProt O15075); conditions: Compound concentration 1000.0 nM
# [45] = system: Mast/stem cell growth factor receptor Kit (Homo sapiens), P10721 [D816H]; conditions: Compound concentration 1000.0 nM
# Serine/threonine-protein kinase WNK2 (Homo sapiens), sequence (Q9Y3S1 whole entry): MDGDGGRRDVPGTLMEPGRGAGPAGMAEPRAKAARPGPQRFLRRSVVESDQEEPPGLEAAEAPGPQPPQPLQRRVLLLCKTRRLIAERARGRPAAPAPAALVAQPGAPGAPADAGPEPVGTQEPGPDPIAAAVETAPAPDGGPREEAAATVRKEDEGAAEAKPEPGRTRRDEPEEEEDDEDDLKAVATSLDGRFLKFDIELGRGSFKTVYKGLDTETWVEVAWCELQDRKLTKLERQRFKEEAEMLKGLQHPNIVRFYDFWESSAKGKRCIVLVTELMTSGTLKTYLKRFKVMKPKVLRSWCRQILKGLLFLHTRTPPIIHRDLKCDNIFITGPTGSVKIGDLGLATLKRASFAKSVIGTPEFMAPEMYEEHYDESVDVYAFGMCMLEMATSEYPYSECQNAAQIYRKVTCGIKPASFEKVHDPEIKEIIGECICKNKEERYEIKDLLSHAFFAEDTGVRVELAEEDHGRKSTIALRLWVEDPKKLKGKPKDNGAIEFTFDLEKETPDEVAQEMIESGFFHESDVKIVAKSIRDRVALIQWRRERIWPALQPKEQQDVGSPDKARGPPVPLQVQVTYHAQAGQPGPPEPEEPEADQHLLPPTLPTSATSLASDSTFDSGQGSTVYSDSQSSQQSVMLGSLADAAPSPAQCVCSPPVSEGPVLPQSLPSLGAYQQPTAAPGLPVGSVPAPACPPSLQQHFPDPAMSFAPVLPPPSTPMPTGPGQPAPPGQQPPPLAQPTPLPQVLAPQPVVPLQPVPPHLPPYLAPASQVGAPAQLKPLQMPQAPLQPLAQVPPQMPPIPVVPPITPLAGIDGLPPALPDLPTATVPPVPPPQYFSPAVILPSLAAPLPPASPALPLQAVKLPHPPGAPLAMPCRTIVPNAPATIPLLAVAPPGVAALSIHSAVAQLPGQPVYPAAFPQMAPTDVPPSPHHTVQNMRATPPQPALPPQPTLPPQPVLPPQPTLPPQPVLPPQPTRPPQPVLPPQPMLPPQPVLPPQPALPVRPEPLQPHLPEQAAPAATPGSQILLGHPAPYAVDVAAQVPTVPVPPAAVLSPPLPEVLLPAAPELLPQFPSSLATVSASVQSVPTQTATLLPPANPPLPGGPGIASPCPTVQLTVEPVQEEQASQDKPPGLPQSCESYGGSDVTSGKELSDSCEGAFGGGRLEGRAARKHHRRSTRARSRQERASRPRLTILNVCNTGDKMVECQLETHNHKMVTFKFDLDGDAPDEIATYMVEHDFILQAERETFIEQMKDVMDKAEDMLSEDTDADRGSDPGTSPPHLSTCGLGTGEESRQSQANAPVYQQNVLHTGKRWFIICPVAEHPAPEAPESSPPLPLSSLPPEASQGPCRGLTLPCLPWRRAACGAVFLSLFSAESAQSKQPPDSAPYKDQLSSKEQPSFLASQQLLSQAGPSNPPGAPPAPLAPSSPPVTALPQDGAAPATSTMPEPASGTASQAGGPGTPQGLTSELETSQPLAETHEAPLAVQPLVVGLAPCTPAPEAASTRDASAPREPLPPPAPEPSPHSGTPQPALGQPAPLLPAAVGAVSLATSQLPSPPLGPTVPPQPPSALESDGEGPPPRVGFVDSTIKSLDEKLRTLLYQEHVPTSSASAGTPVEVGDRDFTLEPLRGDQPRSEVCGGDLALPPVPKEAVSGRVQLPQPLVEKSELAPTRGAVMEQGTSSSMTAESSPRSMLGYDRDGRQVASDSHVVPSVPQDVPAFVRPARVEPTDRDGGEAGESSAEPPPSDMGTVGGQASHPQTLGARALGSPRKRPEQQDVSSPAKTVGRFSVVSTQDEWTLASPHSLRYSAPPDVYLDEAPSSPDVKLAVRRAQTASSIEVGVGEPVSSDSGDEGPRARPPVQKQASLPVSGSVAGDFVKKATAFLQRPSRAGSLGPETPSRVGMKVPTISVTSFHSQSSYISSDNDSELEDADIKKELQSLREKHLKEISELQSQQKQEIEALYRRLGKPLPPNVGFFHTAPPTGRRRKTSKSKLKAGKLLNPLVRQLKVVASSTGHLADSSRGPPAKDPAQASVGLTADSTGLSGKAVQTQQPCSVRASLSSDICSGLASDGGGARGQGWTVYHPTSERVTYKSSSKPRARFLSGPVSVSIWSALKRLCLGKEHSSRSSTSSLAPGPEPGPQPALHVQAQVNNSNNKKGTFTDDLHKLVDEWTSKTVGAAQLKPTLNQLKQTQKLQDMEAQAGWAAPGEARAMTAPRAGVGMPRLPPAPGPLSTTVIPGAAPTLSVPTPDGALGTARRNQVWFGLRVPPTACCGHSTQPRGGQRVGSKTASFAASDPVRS
# Tyrosine-protein kinase Lyn (Homo sapiens), sequence (P07948 2-512 limits assumed): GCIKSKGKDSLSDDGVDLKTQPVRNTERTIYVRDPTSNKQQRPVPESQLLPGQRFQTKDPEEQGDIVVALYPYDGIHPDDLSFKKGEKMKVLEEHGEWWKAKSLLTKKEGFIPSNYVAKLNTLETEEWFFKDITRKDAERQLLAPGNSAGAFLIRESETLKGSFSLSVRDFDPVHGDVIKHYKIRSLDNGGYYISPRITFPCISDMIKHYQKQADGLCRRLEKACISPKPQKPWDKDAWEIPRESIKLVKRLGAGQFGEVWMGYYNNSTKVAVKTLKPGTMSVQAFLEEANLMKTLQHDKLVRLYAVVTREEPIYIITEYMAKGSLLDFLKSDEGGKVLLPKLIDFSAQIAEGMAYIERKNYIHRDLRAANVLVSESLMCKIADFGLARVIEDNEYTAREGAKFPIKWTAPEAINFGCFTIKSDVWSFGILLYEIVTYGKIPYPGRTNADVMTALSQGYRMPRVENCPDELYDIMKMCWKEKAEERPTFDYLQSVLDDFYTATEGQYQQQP
# Sodium-dependent dopamine transporter (Homo sapiens), sequence (Q01959 whole entry): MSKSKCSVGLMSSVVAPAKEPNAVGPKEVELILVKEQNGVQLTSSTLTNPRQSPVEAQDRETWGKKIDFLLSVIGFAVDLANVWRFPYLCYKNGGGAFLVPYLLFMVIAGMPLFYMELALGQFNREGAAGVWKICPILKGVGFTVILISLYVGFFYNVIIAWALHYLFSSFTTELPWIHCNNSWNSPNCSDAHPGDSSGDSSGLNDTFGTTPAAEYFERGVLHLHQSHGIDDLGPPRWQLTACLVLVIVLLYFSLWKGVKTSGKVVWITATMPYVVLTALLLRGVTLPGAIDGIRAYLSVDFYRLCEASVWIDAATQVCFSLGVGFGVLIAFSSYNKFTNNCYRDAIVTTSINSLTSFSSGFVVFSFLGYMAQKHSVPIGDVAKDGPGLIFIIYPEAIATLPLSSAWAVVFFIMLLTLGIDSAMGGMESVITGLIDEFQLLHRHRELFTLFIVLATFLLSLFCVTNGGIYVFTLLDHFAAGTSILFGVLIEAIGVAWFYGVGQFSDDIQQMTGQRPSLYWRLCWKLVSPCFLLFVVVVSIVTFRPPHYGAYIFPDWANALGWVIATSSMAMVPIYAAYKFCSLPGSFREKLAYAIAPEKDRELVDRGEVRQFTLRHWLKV
# Calcium-dependent protein kinase 1 (Plasmodium falciparum), sequence (P62344 2-524 limits assumed): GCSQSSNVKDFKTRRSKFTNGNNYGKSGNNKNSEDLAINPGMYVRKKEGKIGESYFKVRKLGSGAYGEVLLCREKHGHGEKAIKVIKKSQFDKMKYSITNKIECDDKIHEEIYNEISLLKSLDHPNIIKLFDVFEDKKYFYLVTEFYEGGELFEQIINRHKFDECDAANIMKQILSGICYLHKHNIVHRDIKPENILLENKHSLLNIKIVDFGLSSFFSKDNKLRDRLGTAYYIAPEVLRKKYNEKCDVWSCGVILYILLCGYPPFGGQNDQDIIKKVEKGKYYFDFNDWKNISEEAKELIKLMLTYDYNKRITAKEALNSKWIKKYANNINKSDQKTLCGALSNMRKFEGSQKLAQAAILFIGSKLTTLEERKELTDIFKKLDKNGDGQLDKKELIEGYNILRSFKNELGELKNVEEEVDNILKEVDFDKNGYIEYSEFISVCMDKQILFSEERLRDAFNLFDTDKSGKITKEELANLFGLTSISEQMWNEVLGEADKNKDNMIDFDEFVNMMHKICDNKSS
# Protein-tyrosine kinase 2-beta (Homo sapiens), sequence (Q14289 whole entry, looked up): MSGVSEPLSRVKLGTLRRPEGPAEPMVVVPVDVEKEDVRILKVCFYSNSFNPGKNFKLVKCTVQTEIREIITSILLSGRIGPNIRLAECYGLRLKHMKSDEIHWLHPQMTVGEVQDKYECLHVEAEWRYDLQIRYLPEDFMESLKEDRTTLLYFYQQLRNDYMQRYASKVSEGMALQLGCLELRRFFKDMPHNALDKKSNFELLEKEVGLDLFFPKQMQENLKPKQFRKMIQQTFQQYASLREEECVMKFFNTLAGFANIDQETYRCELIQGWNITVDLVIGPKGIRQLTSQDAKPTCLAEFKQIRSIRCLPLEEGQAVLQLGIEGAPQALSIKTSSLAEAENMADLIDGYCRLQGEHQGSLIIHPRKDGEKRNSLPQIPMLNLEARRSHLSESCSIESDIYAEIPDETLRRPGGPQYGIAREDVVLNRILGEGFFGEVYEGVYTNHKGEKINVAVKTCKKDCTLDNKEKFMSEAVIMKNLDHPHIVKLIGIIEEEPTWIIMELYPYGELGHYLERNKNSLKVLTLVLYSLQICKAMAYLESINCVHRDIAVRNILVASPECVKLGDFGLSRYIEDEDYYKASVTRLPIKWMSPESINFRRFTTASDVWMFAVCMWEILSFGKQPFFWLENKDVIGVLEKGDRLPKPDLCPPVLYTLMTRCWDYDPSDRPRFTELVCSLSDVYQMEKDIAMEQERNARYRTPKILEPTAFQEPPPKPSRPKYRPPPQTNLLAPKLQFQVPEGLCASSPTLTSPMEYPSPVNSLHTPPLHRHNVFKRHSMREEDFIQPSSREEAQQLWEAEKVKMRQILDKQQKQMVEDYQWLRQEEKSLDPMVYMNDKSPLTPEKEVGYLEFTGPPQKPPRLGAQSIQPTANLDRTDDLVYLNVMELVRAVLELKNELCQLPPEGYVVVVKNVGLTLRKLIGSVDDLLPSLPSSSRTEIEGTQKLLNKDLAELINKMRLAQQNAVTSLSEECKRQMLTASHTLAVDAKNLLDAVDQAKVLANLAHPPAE
compound,measurement,setting,value
CS(=O)(=O)NCC[C@H](NC(=O)c1cncc2c1cnn2-c1ccc(F)cc1)c1ccnc(S(C)(=O)=O)c1 [BI 9307],residual activity,[1],100%
same,residual activity,[2],100%
same,residual activity,[3],100%
same,residual activity,[4],97%
same,residual activity,[5],88%
same,residual activity,[6],100%
same,residual activity,[7],88%
same,residual activity,[8],100%
same,inhibition,[9],25.3%
same,residual activity,[10],92%
same,residual activity,[11],100%
same,residual activity,[12],100%
same,residual activity,[13],88%
same,residual activity,[14],100%
same,residual activity,[15],100%
same,residual activity,[16],94%
same,residual activity,[17],93%
same,residual activity,[18],100%
same,residual activity,[19],100%
same,residual activity,[20],100%
same,residual activity,[21],94%
same,residual activity,[22],97%
same,residual activity,[23],100%
same,inhibition,[24],-1.85%
same,residual activity,[25],90%
same,residual activity,[26],100%
same,residual activity,[27],100%
same,residual activity,[28],82%
same,residual activity,[29],84%
same,residual activity,[30],100%
same,residual activity,[31],91%
same,residual activity,[32],100%
same,residual activity,[33],80%
same,residual activity,[34],100%
same,residual activity,[35],99%
same,residual activity,[36],100%
same,residual activity,[37],100%
same,residual activity,[38],87%
same,residual activity,[39],94%
same,residual activity,[40],81%
same,residual activity,[41],83%
same,residual activity,[42],45%
same,residual activity,[43],100%
same,residual activity,[44],94%
same,residual activity,[45],100%
CS(=O)(=O)c1cc(C2(NC(=O)c3cncc4c3cnn4-c3ccc(F)cc3)CC2)ccn1 [BI 639667],residual activity,[1],100%
same,residual activity,[2],100%
same,residual activity,[3],100%
same,residual activity,[4],100%
same,residual activity,[5],100%
same,residual activity,[6],75%
same,residual activity,[7],100%
same,residual activity,[8],64%
same,inhibition,[9],22.5%
same,residual activity,[10],100%
same,residual activity,[11],100%
same,residual activity,[12],100%
same,residual activity,[13],82%
same,residual activity,[14],100%
same,residual activity,[15],100%
same,residual activity,[16],67%
same,residual activity,[17],100%
same,residual activity,[18],100%
same,residual activity,[19],86%
same,residual activity,[20],100%
same,residual activity,[21],100%
same,residual activity,[22],98%
same,residual activity,[23],74%
same,inhibition,[24],9.02%
same,residual activity,[25],100%
same,residual activity,[26],98%
same,residual activity,[27],75%
same,residual activity,[28],94%
same,residual activity,[29],100%
same,residual activity,[30],100%
same,residual activity,[31],100%
same,residual activity,[32],100%
same,residual activity,[33],91%
same,residual activity,[34],100%
same,residual activity,[35],99%
same,residual activity,[36],100%
same,residual activity,[37],73%
same,residual activity,[38],89%
same,residual activity,[39],100%
same,residual activity,[40],98%
same,residual activity,[41],86%
same,residual activity,[42],45%
same,residual activity,[43],94%
same,residual activity,[44],75%
same,residual activity,[45],49%
